Results taken from patent publication US20050250819A1 (priority 2004, published 2005).

The molecules below were run on Type III-dependent secretion of ExoU by P. aeruginosa PA103 (assay: Tertiary assay: Type III-dependent secretion of ExoU by P. aeruginosa PA103). Conditions: Pseudomonas aeruginosa, ExoU secreted into extracellular medium.
Format: cell-based
Source text: Tertiary assay: inhibition of Type III protein secretion of effectors from a Pseudomonas aeruginosa system. Type III protein secretion is used by P. aeruginosa to secrete several essential virulence determinants. One effector of the type III protein secretion system of P. aeruginosa PA103 is the virulence determinants ExoU.
The amount of Type III-dependent secretion of ExoU by P. aeruginosa PA103 can be determined in a cell-based assay by quantification of the 73.9 kDa ExoU protein secreted into the extracellular medium. Such quantitation can be achieved by growing strain PA103 in a deferrated medium in the presence of nitrilotriacetic acid (an inducer of Type III protein secretion in P. aeruginosa) and either in the presence or absence of putative inhibitors. After a prolonged growth period, the cells are sedimented and the supernatants concentrated by ammonium sulfate precipitation. The proteins in the resuspended pellets are separated by electrophoresis on SDS-polyacrylamide gels. After staining gels with Colloidal Blue™, the 73.9 kDa ExoU band is quantitated by scanning through an imager. The effects of inhibitors on the intensity of the ExoU band may be measured relative to that of untreated controls.

SMILES	IC50 [µM]
O=C(N[C@@H](CSCc1ccccc1)C(=O)O)/C(=C\c1ccc(OCc2ccccc2)cc1)NC(=O)c1ccc(C(F)(F)F)cc1 [Compound 1, (R)-2-[3-(4-Benzyloxyphenyl)-2-(4-trifluoromethylbenzoylamino)acryloylamino]-3-benzylsulfanylpropionic acid]	11.6
O=C(N[C@H](CSCc1ccccc1)C(=O)O)/C(=C\c1ccc(-c2ccccc2)cc1)NC(=O)c1ccc(C(F)(F)F)cc1 [Compound 6, (S)-3-Benzylsulfanyl-2-[3-biphenyl-4-yl-2-(4-trifluoromethylbenzoylamino)-acryloylamino]propionic acid]	47
O=C(N[C@@H](CCSCc1ccccc1)C(=O)O)/C(=C\c1ccc(-c2ccccc2)cc1)NC(=O)c1ccc(C(F)(F)F)cc1 [Compound 7, (S)-4-Benzylsulfanyl-2-[3-biphenyl-4-yl-2-(4-trifluoromethylbenzoylamino)-acryloylamino]butyric acid]	31
O=C(N[C@@H](CSCc1ccccc1)C(=O)O)/C(=C\c1ccc(Oc2ccccc2)cc1)NC(=O)c1ccc(C(F)(F)F)cc1 [Compound 17, (R)-3-Benzylsulfanyl-2-[3-(4-phenoxyphenyl)-2-(4-trifluoromethylbenzoylamino)-acryloylamino]propionic acid]	49
O=C(N[C@@H](CSCc1ccccc1)C(=O)O)/C(=C\c1cccc(OCc2ccccc2)c1)NC(=O)c1ccc(C(F)(F)F)cc1 [Compound 18, (R)-2-[3-(3-Benzyloxyphenyl)-2-(4-trifluoromethylbenzoylamino)acryloylamino]-3-benzylsulfanylpropionic acid]	57
O=C(N[C@@H](CSCc1ccccc1)C(=O)O)/C(=C\c1ccc(Oc2ccccc2)cc1)NC(=O)c1ccc(Br)cc1 [Compound 20, (R)-3-Benzylsulfanyl-2-[2-(4-bromobenzoylamino)-3-(4-phenoxyphenyl)-acryloylamino]propionic acid]	37
O=C(N[C@@H](CSCc1ccccc1)C(=O)O)/C(=C\c1cccc(Oc2ccccc2)c1)NC(=O)c1ccc(I)cc1 [Compound 21, (R)-3-Benzylsulfanyl-2-[2-(4-iodobenzoylamino)-3-(3-phenoxyphenyl)-acryloylamino]propionic acid]	69

What follows are molecules tested on Type III protein secretion of the chimeric SopE‘-’Bla polypeptide (SPI1 type III protein secretion system) (assay: Primary assay: Type III protein secretion of the chimeric SopE'-'Bla polypeptide by Salmonella enterica). Conditions: read-out: SopE IC50(μM).
Format: cell-based
Source text: Primary assay: Type III protein secretion of the chimeric SopE‘-’Bla polypeptide by Salmonella enterica. This procedure is a cell-based assay that measures the type III-dependent secretion by Salmonella enterica of a plasmid-encoded chimeric polypeptide whose synthesis can be regulated, and which is endowed with an enzymatic activity that can be monitored colorimetrically by hydrolysis of a substrate that is unable to penetrate into the bacterial cytoplasm within the time constraints of the reaction. Thus, the colormetric reaction is not influenced by SopE‘-’Bla polypeptide in the bacterial cytplasm. Instead, it effectively measures the amount of polypeptide that has been secreted from the S. enterica cytoplasm to the extracellular medium via type III system protein secretion.
The SopE‘-’Bla recombinant polypeptide consists of two functionally distinct domains spliced together. The N-terminus domain is encoded by a polynucleotide region specifying the signal for type III secretion of the SopE polypeptide of S. enterica, an effector of the SPI1 type III protein secretion system. The C-terminus domain of SopE‘-’Bla consists of a 263 amino acid peptide sequence that corresponds to the TEM-1 β-lactamase expressed by plasmid pBR322 but without its N-terminal signal sequence. The TEM-1 β-lactamase part of the SopE‘-’Bla chimeric polypeptide is used as a reporter enzyme. It is capable of hydrolyzing nitrocefin resulting in a product whose accumulation can be monitored by colorimetric detection. The secretion of the SopE‘-’Bla chimeric polypeptide from the cytoplasm to the extracellular medium is dependent on type III protein secretion.
For this procedure, cells grown under conditions known to favor a functional SPI1 secretion system are induced for expression of the SopE‘-’Bla protein and grown either in the presence or in the absence of putative inhibitors for determined time. Nitrocefin is then added to the various cultures and its hydrolysis are used for quantitation. An inhibitor of Type III protein secretion is generally a compound that reduces the signal of the enzymatic reaction by decreasing the amount of SopE‘-’Bla secreted into the extracellular medium.

SMILES	IC50 [µM]
O=C(O)C(Cc1ccc(Cl)cc1)NC(=O)N(CCc1ccc(-c2ccccc2)cc1)Cc1cccc(C(F)(F)F)c1 (centres unmarked) [Compound 87, 2-[3-(2-Biphenyl-4-yl-ethyl)-3-(3-trifluoromethylbenzyl)ureido]-3-(4-chlorophenyl)propionic acid]	1.5
O=C(O)[C@H](COCc1ccccc1)NC(=O)N(CCc1ccc(-c2ccccc2)cc1)Cc1cccc(C(F)(F)F)c1 [Compound 88, (S)-3-Benzyloxy-2-[3-(2-biphenyl-4-yl-ethyl)-3-(3-trifluoromethylbenzyl)ureido]propionic acid]	4
O=C(O)[C@H](COCc1ccccc1)NC(=O)N(CCc1ccc(-c2ccccc2)cc1)Cc1ccc(Cl)c(Cl)c1 [Compound 89, (S)-3-Benzyloxy-2-[3-(2-biphenyl-4-yl-ethyl)-3-(3,4-dichlorobenzyl)ureido]propionic acid]	2.1
CC(C)(S)C(NC(=O)/C(=C\c1ccc(-c2ccccc2)cc1)NC(=O)c1ccc(C(F)(F)F)cc1)C(=O)O (centres unmarked) [Compound 90]	7.8
O=C(NC(Cc1ccc(Cl)cc1)C(=O)O)/C(=C\c1ccc(Cl)c(Cl)c1)NC(=O)c1ccc(C(F)(F)F)cc1 (centres unmarked) [Compound 91]	7.6
CC(C)(S)C(NC(=O)/C(=C\c1ccc(Cl)c(Cl)c1)NC(=O)c1ccc(-c2ccccc2)cc1)C(=O)O (centres unmarked) [Compound 92]	5
Cc1ccc(/C=C(/NC(=O)c2ccc(-c3ccccc3)cc2)C(=O)NC(C(=O)O)C(C)(C)S)s1 (centres unmarked) [Compound 93]	1.4
Cc1ccc(/C=C(/NC(=O)c2ccc(-c3ccccc3)cc2)C(=O)NC(C(=O)O)C(C)(C)S)o1 (centres unmarked) [Compound 94]	55.2
CC(C)(S)C(NC(=O)/C(=C\c1cccc(C(F)(F)F)c1)NC(=O)c1ccc(-c2ccccc2)cc1)C(=O)O (centres unmarked) [Compound 95]	14.1
O=C(O)CCCCNC(=O)/C(=C\c1cccc(C(F)(F)F)c1)NC(=O)c1ccc(-c2ccccc2)cc1 [Compound 99]	42
O=C(NC(CCSCc1ccccc1)C(=O)O)/C(=C\c1ccc(Cl)cc1Cl)NC(=O)c1ccc(-c2ccccc2)cc1 (centres unmarked) [Compound 104]	3.8
O=C(N/C(=C/c1ccc(Cl)c(Cl)c1)C(=O)N1CCCCC1C(=O)O)c1ccc(-c2ccccc2)cc1 (centres unmarked) [Compound 107]	8
NC(=O)C[C@@H](NC(=O)/C(=C\c1ccc(Cl)c(Cl)c1)NC(=O)c1ccc(-c2ccccc2)cc1)C(=O)O [Compound 112]	16.6
O=C(O)CCCCNC(=O)/C(=C\c1ccc(Cl)c(Cl)c1)NC(=O)c1ccc(-c2ccccc2)cc1 [Compound 113]	14.5
O=C(NC1(C(=O)O)CCCCC1)/C(=C\c1ccc(Cl)c(Cl)c1)NC(=O)c1ccc(-c2ccccc2)cc1 [Compound 114]	7.3
CC(C)(S)C(NC(=O)/C(=C\c1ccc(Cl)c(Cl)c1)NC(=O)c1ccccc1)C(=O)O (centres unmarked) [Compound 115]	61.6

SMILES	IC50 [µM]
COc1cccc(C(=O)N/C(=C/c2ccc(Cl)c(Cl)c2)C(=O)NC(Cc2ccc(Cl)cc2)C(=O)O)c1 (centres unmarked) [Compound 117]	15.5
O=C(N/C(=C/c1cccc(C(F)(F)F)c1)C(=O)N1CCCCC1C(=O)O)c1ccc(C(F)(F)F)cc1 (centres unmarked) [Compound 118]	100
CC(C)(S)C(NC(=O)/C(=C\c1ccc(Cl)c(Cl)c1)NC(=O)c1ccc(C(F)(F)F)cc1)C(=O)O (centres unmarked) [Compound 120]	22.7
CC(C)(S)C(NC(=O)/C(=C\c1ccc(C(F)(F)F)cc1)NC(=O)c1ccc(-c2ccccc2)cc1)C(=O)O (centres unmarked) [Compound 124]	16
CCc1ccc(/C=C(/NC(=O)c2ccc(-c3ccccc3)cc2)C(=O)NC(C(=O)O)C(C)(C)S)cc1 (centres unmarked) [Compound 125]	20
CC(C)(S)C(NC(=O)/C(=C\c1ccc(-c2ccccc2)cc1)NC(=O)c1ccc(-c2ccccc2)cc1)C(=O)O (centres unmarked) [Compound 126]	3
CC(C)(S)C(NC(=O)/C(=C\c1cccc(Oc2ccccc2)c1)NC(=O)c1ccc(-c2ccccc2)cc1)C(=O)O (centres unmarked) [Compound 127]	10
O=C(O)CCCCNC(=O)/C(=C\c1ccc(-c2ccccc2)cc1)NC(=O)c1ccc(C(F)(F)F)cc1 [Compound 132]	42
O=C(NC1(C(=O)O)CCCCC1)/C(=C\c1ccc(-c2ccccc2)cc1)NC(=O)c1ccc(C(F)(F)F)cc1 [Compound 135]	50
Cc1ccccc1/C=C(/NC(=O)c1ccc(C(F)(F)F)cc1)C(=O)N[C@@H](CSCc1ccccc1)C(=O)O [Compound 138]	100
O=C(N/C(=C/c1ccc(-c2ccccc2)cc1)C(=O)N1CCCCC1C(=O)O)c1ccc(C(F)(F)F)cc1 (centres unmarked) [Compound 147]	60
O=C(N[C@@H](CSCc1ccccc1)C(=O)O)/C(=C\c1ccccc1Cl)NC(=O)c1ccc(C(F)(F)F)cc1 [Compound 151]	50
NC(=O)C[C@@H](NC(=O)/C(=C\c1ccc(-c2ccccc2)cc1)NC(=O)c1ccc(C(F)(F)F)cc1)C(=O)O [Compound 152]	100
CC(C)(S)C(NC(=O)/C(=C\c1cccc(Oc2ccccc2)c1)NC(=O)c1ccc(C(F)(F)F)cc1)C(=O)O (centres unmarked) [Compound 160]	16
Cc1ccc(C(=O)N/C(=C/c2ccc(Cl)c(Cl)c2)C(=O)NC(C(=O)O)C(C)(C)S)cc1 (centres unmarked) [Compound 161]	56
